Results on 23 compounds are retold here after US9914709B2, “Compositions and methods of treating HIV-1 infections using same” (YALE UNIVERSITY, priority 2013, dated 2018).

Like-named read-outs stand apart in the source and are kept apart here. Marks after values point to notes of the source that are not given here.

Data set [1] deals with HIV-1 Y181C variant. In words: microbe, parasite or virus in culture. It is filed as cell-based.
Data set [2] has as its system IIIB strain of HIV-1 (wild-type). In words: Anti-HIV-1 activity, MT-2 cells infected with wild-type HIV-1 (IIIB), MTT method. The format is cell-based. To be noted: for EC50: Human immunodeficiency virus 1, IIIB, MT2, read-out: EC50 WT.
Data set [3] relates to HIV-1 K103N/Y181C variant. In words: microbe, parasite or virus in culture. It is filed as cell-based.
Data set [4] in a line: physchem. Particulars: for increase in S: 48 h; for Aqueous Solubility (S): Table 5, pH 6.5; for solubility at 48 h: 25 °C, thermodynamic from solid. Here is the method: The compounds were dissolved in Britton-Robinson buffer and stirred in vials for 48 hours at 25° C. The pH of the buffer solutions was measured by a Corning General Purpose pH Combination probe (4136L21).
For measurement of aqueous solubility, the pH of the buffer solutions was measured by Corning Combination pH Electrodes (4136L21) pH meter with Ag/AgCl glass electrode. […] An Ika® RCT basic magnetic stirrer was used to mix the two phases.
The equilibrium solubility of the non-ionized form of the samples was determined by the shake flask method. For each reported solubility result, two or three independent shake-flask experiments were carried out in parallel. For each experiment the 5 mg of the solid was added to 5 mL of the buffer in a vial. […] The standards and samples were measured by UV spectrophotometry at the maximum wavelength of the individual compounds.

Data set [5] can be described thus: in vitro. Particulars: human.
For data set [6] the following is noted: cited from earlier work.
Where [7] appears, read: Human immunodeficiency virus 1, MT2, read-out: EC50 K103N/Y181C.
Where [8] appears, read: Human immunodeficiency virus 1, MT2, read-out: EC50, Y181C variant.
[9] abbreviates: Human immunodeficiency virus 1, MT2, read-out: EC50 Y181C.

For orientation: solubility means the concentration that dissolves in the medium under given conditions.

`COc1nc(Nc2ccc(C#N)c(OCC=C(C)C)c2)nc(OCCN2CCOCC2)n1` [Compound 2j, 4-((4-methoxy-6-(2-morpholinoethoxy)-1,3,5-triazin-2-yl)amino)-2-((3-methylbut-2-en-1-yl)oxy)benzonitrile]: the “activity towards the Y181C-containing viral variant” value in data set [1] was “does not show activity”. In addition, the “reduction in wild-type potency” value in data set [2] (relative to parent lacking the morpholinoalkoxy group (2a; 10a)) amounted to 9 fold. In addition, the “activity in the wild-type cell assay less” value in data set [2] (than rilpivirine or dapivirine) was 100 fold.
For `Cc1cc(C)c(Nc2cc(OCCN3CCOCC3)nc(Nc3ccc(C#N)cc3)n2)c(C)c1` [Compound 5a, 4-((4-(mesitylamino)-6-(2-morpholinoethoxy)pyrimidin-2-yl)amino)benzonitrile], the figures for the EC50 in data set [3] (setting [7]), in data set [1] (setting [8]) and in data set [1] (setting [9]) were 60 nM, 700 nM and 700 nM, respectively. The “increase in S” value in data set [4] is 83 fold. In addition, in data set [4], the “Aqueous Solubility (S)” value is 12.5 µg/mL.
As for `Cc1cc(C)c(Nc2cc(OCCCN3CCOCC3)nc(Nc3ccc(C#N)cc3)n2)c(C)c1` [Compound 5b, 4-((4-(mesitylamino)-6-(3-morpholinopropoxy)pyrimidin-2-yl)amino)benzonitrile], the EC50 in data set [3] (setting [7]) came out at 38 nM; in data set [1] (setting [8]), 480 nM; in data set [1] (setting [9]), 480 nM. Further, in data set [4], the “increase in S” value was found to be 182 fold. Moreover, the “Aqueous Solubility (S)” value in data set [4] came out at 27.3 µg/mL.
Regarding `Cc1cc(/C=C/C#N)cc(C)c1Nc1cc(OCCCN2CCOCC2)nc(Nc2ccc(C#N)cc2)n1` [Compound 5c, (E)-4-((4-((4-(2-cyanovinyl)-2,6-dimethylphenyl)amino)-6-(3-morpholinopropoxy)pyrimidin-2-yl)amino)benzonitrile], the EC50 was found to be 3 nM in data set [3] (setting [7]), 15 nM in data set [1] (setting [9]) and 3.7 nM in data set [2]. In data set [5], this compound came in with a CC50 of 6400 nM. Further, the solubility at 48 h in data set [4] (pH 6.5, aqueous buffer) is 2 µg/mL.
`N#C/C=C/c1cc(F)c(Nc2cc(OCCCN3CCOCC3)nc(Nc3ccc(C#N)cc3)n2)c(F)c1` [Compound 5d, (E)-4-((4-((4-(2-cyanovinyl)-2,6-difluorophenyl)amino)-6-(3-morpholinopropoxy)pyrimidin-2-yl)amino)benzonitrile]: the EC50 is 7.1 nM in data set [3] (setting [7]), 150 nM in data set [1] (setting [9]) and 4.1 nM in data set [2]. In data set [5], the CC50 stood at 18000 nM.
Regarding `Cc1cc(C)c(Nc2nc(Nc3ccc(C#N)cc3)nc(OCCN3CCOCC3)n2)c(C)c1` [Compound 6a, 4-((4-(mesitylamino)-6-(2-morpholinoethoxy)-1,3,5-triazin-2-yl)amino)benzonitrile], the values for the EC50 in data set [3] (setting [7]) and in data set [1] (setting [9]) were 110 nM and 700 nM, respectively. Also, the “Aqueous Solubility (S)” value in data set [4] is 4.42 µg/mL.
Take `Cc1cc(C)c(Nc2nc(Nc3ccc(C#N)cc3)nc(OCCCN3CCOCC3)n2)c(C)c1` [Compound 6b, 4-((4-(mesitylamino)-6-(3-morpholinopropoxy)-1,3,5-triazin-2-yl)amino)benzonitrile]: the EC50 turned out to be 31 nM in data set [3] (Human immunodeficiency virus 1, MT2, read-out: EC50, K103N/Y181C variant); 31 nM in data set [3] (setting [7]); 310 nM in data set [1] (setting [8]); 310 nM in data set [1] (setting [9]). In data set [4], the “Aqueous Solubility (S)” value amounted to 15.3 µg/mL.
As for `Cc1cc(C#N)cc(C)c1Nc1nc(Nc2ccc(C#N)cc2)nc(OCCCN2CCOCC2)n1` [Compound 6c, 4-((4-((4-cyanophenyl)amino)-6-(3-morpholinopropoxy)-1,3,5-triazin-2-yl)amino)-3,5-dimethylbenzonitrile], the EC50 in data set [3] (setting [7]) was 42 nM; in data set [1] (setting [9]), 1000 nM. The “Aqueous Solubility (S)” value in data set [4] is 13.3 µg/mL.
For `Cc1cc(/C=C/C#N)cc(C)c1Nc1nc(Nc2ccc(C#N)cc2)nc(OCCCN2CCOCC2)n1` [Compound 6d, (E)-4-((4-((4-(2-cyanovinyl)-2,6-dimethylphenyl)amino)-6-(3-morpholinopropoxy)-1,3,5-triazin-2-yl)amino)benzonitrile], the solubility at 48 h in data set [4] (aqueous buffer) was 14.2 µg/mL. In addition, in data set [4], the “increase in S” value came out at 100 fold and the “Aqueous Solubility (S)” value came out at 14.2 µg/mL.
Take `Cc1cc(F)c(Nc2nc(Nc3ccc(C#N)cc3)nc(OCCCN3CCOCC3)n2)c(F)c1` [Compound 6e, 4-((4-((2,6-difluoro-4-methylphenyl)amino)-6-(3-morpholinopropoxy)-1,3,5-triazin-2-yl)amino)benzonitrile]: the EC50 in data set [3] (setting [7]) is 70 nM; in data set [1] (setting [9]), 350 nM. In data set [4], the “Aqueous Solubility (S)” value was found to be 22.9 µg/mL.
With `CCc1cc(F)c(Nc2nc(Nc3ccc(C#N)cc3)nc(OCCCN3CCOCC3)n2)c(F)c1` [Compound 6f, 4-((4-((4-ethyl-2,6-difluorophenyl)amino)-6-(3-morpholinopropoxy)-1,3,5-triazin-2-yl)amino)benzonitrile], the EC50 amounted to 50 nM in data set [3] (setting [7]) and 500 nM in data set [1] (setting [9]).
For `CC(C)c1cc(F)c(Nc2nc(Nc3ccc(C#N)cc3)nc(OCCCN3CCOCC3)n2)c(F)c1` [Compound 6g, 4-((4-((2,6-difluoro-4-isopropylphenyl)amino)-6-(3-morpholinopropoxy)-1,3,5-triazin-2-yl)amino)benzonitrile], the EC50 worked out at 30 nM in data set [3] (setting [7]) and 270 nM in data set [1] (setting [9]).
Regarding `N#Cc1ccc(Nc2nc(Nc3c(F)cc(C4CC4)cc3F)nc(OCCCN3CCOCC3)n2)cc1` [Compound 6h, 4-((4-((4-cyclopropyl-2,6-difluorophenyl)amino)-6-(3-morpholinopropoxy)-1,3,5-triazin-2-yl)amino)benzonitrile], the values for the EC50 in data set [3] (setting [7]) and in data set [1] (setting [9]) were 150 nM and 1100 nM, respectively.
For the compound `N#CCCc1cc(F)c(Nc2nc(Nc3ccc(C#N)cc3)nc(OCCCN3CCOCC3)n2)c(F)c1` [Compound 6i, 4-((4-((4-(2-cyanoethyl)-2,6-difluorophenyl)amino)-6-(3-morpholinopropoxy)-1,3,5-triazin-2-yl)amino)benzonitrile], the EC50 in data set [3] (setting [7]) is 20 nM; in data set [1] (setting [9]) it was 230 nM; in data set [2] it was 5 nM. The same compound displayed a CC50 in data set [5] of 27000 nM. The solubility at 48 h in data set [4] (pH 6.5, aqueous buffer) was 25.4 µg/mL.
For the compound `N#C/C=C/c1cc(F)c(Nc2nc(Nc3ccc(C#N)cc3)nc(OCCCN3CCOCC3)n2)c(F)c1` [Compound 6j, (E)-4-((4-((4-(2-cyanovinyl)-2,6-difluorophenyl)amino)-6-(3-morpholinopropoxy)-1,3,5-triazin-2-yl)amino)benzonitrile], the results for the EC50 in data set [3] (setting [7]), in data set [1] (setting [9]) and in data set [2] were 46 nM, 630 nM and 14 nM, respectively. The compound also returned a CC50 in data set [5] of 6500 nM.
Take `Cc1cc(C)c(Nc2nc(Nc3ccc(C#N)cc3)nc(OCCC3CCNCC3)n2)c(C)c1` [Compound 12a, 4-((4-(mesitylamino)-6-(2-(piperidin-4-yl)ethoxy)-1,3,5-triazin-2-yl)amino)benzonitrile]: the EC50 in data set [3] (setting [7]) was found to be 42 nM; in data set [1] (setting [9]), 1000 nM.
Turning to `Cc1cc(C)c(Nc2nc(Nc3ccc(C#N)cc3)nc(OCCCC3CCNCC3)n2)c(C)c1` [Compound 12b, 4-((4-(mesitylamino)-6-(3-(piperidin-4-yl)propoxy)-1,3,5-triazin-2-yl)amino)benzonitrile], the EC50 is 140 nM in data set [3] (setting [7]) and 1200 nM in data set [1] (setting [9]).
As to `Cc1cc(/C=C/C#N)cc(C)c1Nc1nc(NCCCN2CCOCC2)nc(Nc2ccc(C#N)cc2)n1` [JLJ0596, (E)-4-((4-((4-(2-cyanovinyl)-2,6-dimethylphenyl)amino)-6-((3-morpholinopropyl)amino)-1,3,5-triazin-2-yl)amino)benzonitrile], the EC50 came out at 68 nM in data set [3] (setting [7]), 510 nM in data set [1] (setting [9]) and 7 nM in data set [2]. In data set [5], this compound showed a CC50 of 1800 nM.
For `N#C/C=C/c1cc(F)c(Nc2nc(NCCCN3CCOCC3)nc(Nc3ccc(C#N)cc3)n2)c(F)c1` [JLJ0597, (E)-4-((4-((4-(2-cyanovinyl)-2,6-difluorophenyl)amino)-6-((3-morpholinopropyl)amino)-1,3,5-triazin-2-yl)amino)benzonitrile], in that order: 16 nM, 75 nM, 5.7 nM and 7000 nM.
Consider `Cc1cc(/C=C/C#N)cc(C)c1Nc1cc(NCCCN2CCOCC2)nc(Nc2ccc(C#N)cc2)n1` [JLJ0618, (E)-4-((4-((4-(2-cyanovinyl)-2,6-dimethylphenyl)amino)-6-((3-morpholinopropyl)amino)pyrimidin-2-yl)amino)benzonitrile], for which the EC50 in data set [3] (setting [7]) is 2 nM; in data set [1] (setting [9]) it was 17 nM; in data set [2] it was 3 nM. In data set [5], this compound registered a CC50 of 4500 nM.
With `N#C/C=C/c1cc(F)c(Nc2cc(NCCCN3CCOCC3)nc(Nc3ccc(C#N)cc3)n2)c(F)c1` [JLJ0619, (E)-4-((4-((4-(2-cyanovinyl)-2,6-difluorophenyl)amino)-6-((3-morpholinopropyl)amino)pyrimidin-2-yl)amino)benzonitrile], the EC50 in data set [3] (setting [7]) was 34 nM; in data set [1] (setting [9]), 470 nM; in data set [2], 4.5 nM. In addition, the CC50 in data set [5] was 2200 nM.
Turning to `CC(C)=CCOc1cc(NC(=S)c2ccoc2C)ccc1Cl` [UC-781], the solubility in data set [6] (Yang et al. 2008) was less than 0.03 µg/mL.
For `Cc1cc(C#N)cc(C)c1Oc1nc(Nc2ccc(C#N)cc2)nc(N)c1Br` [etravirine], in data set [6] (Table 5, literature values (Morelock 1994; Weuts 2011)), the “Aqueous Solubility (S)” value is <<1^b μg/mL. Besides, the aqueous solubility result in data set [6] (literature values) is “lower than 1 μg/mL”.
